{"source": "patent US9562053B2", "about": "“Benzo-fused heterocyclic derivatives useful as agonists of GPR120” (Janssen Pharmaceutica NV, priority 2013, dated 2017)", "key": {"C57bl/6J Mice": {"test_system": "C57bl/6J Mice", "test": "C57bl6 mouse OGTT", "assay_type": "in vivo", "method": "Male, C57bl/6J Mice were ordered in at 8 weeks of age from Jackson Labs. Individual mice weighed anywhere in the range of 25-30 grams on study day. The mice were fasted, with removal of food occurring at 7 am on the morning of the study. Animals were moved into the room at 10:00 am, to give them time to acclimate. Glucose (insulin syringes) was drawn up either the night before or the morning of the study. Glucose was dosed (IP) at 1.5 g/kg at 7.5 ml/kg (20% glucose straight TEKNOVA, 250 ml sterile bottle w/catalogue number G0525). Test compounds were kept spinning and were only drawn into the syringes prior to study commencement. Animals were bled via tail snip to determine basal glucose levels prior to dosing of treatments. An Ascensia BREEZE Blood Glucose Monitoring System by Bayer (using unique 10-test disks) was used for determining glucose levels. The bleeds started at approximately 12:45 pm and dosing started, at 1-minute intervals, immediately after. All groups were dosed 30 minutes prior to glucose administration at a dose volume of 10 ml/kg (the dose volume was calculated separately for each individual animal). Thirty minutes after the first dose animals were bled again for a second baseline, or T=0, and immediately dosed with glucose via an i.p. injection. The exact dose volume for glucose was also calculated separately for each individual animal. Glucose measurements were taken at −30 min prior to compound dose, at t=0 (immediately prior to glucose dose), and at 15, 30, 45, 60, 90 min post glucose dose.\nGlucose values were entered into an Excel sheet and graphed in GraphPad Prism. The following were calculated from Prism: Change from −30 to 0 BSLN Glucose, Raw Glucose AUC −30 to 90 min, Delta Glucose AUC −30 to 90 min, Raw Glucose AUC 0 to 90 min, Delta Glucose AUC 0 to 90 min.\nThe assay design is the same as that described above for the C57bl6 mouse IPGTT. The difference is that glucose was dosed PO at 3 g/kg, 7.5 ml/kg of 40% glucose."}, "[1]": {"molecular_target": "T1, long form of human GPR120 (Homo sapiens, UniProt Q5NUL3)", "T1 construct": "host or cells: PathHunter CHO-K1 GPR120 β-Arrestin Cell Line", "T1 sequence (Q5NUL3 1-377 isoform Q5NUL3-1)": "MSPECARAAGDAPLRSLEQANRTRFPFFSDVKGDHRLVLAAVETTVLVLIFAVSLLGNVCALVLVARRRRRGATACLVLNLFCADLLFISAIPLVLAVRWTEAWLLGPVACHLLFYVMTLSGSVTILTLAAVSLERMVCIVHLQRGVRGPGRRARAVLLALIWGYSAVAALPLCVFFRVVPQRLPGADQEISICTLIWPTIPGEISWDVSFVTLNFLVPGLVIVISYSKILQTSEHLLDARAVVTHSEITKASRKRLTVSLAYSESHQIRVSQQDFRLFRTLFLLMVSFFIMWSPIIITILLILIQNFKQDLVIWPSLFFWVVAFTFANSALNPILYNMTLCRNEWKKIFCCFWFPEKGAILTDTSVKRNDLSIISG", "test": "Human GPR120 DiscoveRx PathHunter Beta-Arrestin Assay, Procedure β-arrestin A (3000 cells per well)", "assay_type": "cell-based", "details": "read-out: GPR120 B-arrestin A EC50", "procedure,_shortened": "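PathHunter CHO-K1 cells with long-form receptor, 3000/well, seeded overnight at 37 °C; equilibrated 60 min at 37 °C in HBSS/20 mM HEPES/0.1% BSA, pH 7.4. Compound serial dilutions (25–0.012 μM) added for 90 min at 37 °C, detection 60 min at room temperature, luminescence read; EC50 from % of positive control, Hill slope fixed at 1.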"}}, "note": "pEC50: −log10 of the molar value."}
{"compound": "CCc1cc2cc(OC(F)(F)F)cc(COc3ccc(CCC(=O)O)c(C)c3C)c2o1", "note": "[Compound 12, 3-(4-{[2-Ethyl-5-(trifluoromethoxy)-1-benzofuran-7-yl]methoxy}-2,3-dimethylphenyl)propanoic acid]", "values": [{"measurement": "Dose Responses C57 OGTT", "setting": "C57bl/6J Mice; 3 mg/kg", "value": 6, "unit": "%"}, {"measurement": "Dose Responses C57 OGTT", "setting": "C57bl/6J Mice; 10 mg/kg", "value": "−26", "unit": "%"}, {"measurement": "Dose Responses C57 OGTT", "setting": "C57bl/6J Mice; 30 mg/kg", "value": "−30", "unit": "%"}, {"measurement": "pEC50", "setting": "[1]", "value": 6.82}]}
{"compound": "Cc1cc2cc(F)cc(COc3ccc(CCC(=O)O)c(C)c3C)c2o1", "note": "[Compound 2, 3-{4-[(5-Fluoro-2-methyl-1-benzofuran-7-yl)methoxy]-2,3-dimethylphenyl}propanoic acid]", "values": [{"measurement": "Dose Responses C57 OGTT", "setting": "C57bl/6J Mice; 3 mg/kg", "value": "−29", "unit": "%"}, {"measurement": "Dose Responses C57 OGTT", "setting": "C57bl/6J Mice; 10 mg/kg", "value": "−31", "unit": "%"}, {"measurement": "Dose Responses C57 OGTT", "setting": "C57bl/6J Mice; 30 mg/kg", "value": "−51", "unit": "%"}, {"measurement": "pEC50", "setting": "[1]", "value": 6.43}]}
{"compound": "CCc1cc2cc(F)cc(COc3ccc(CCC(=O)O)c(C)c3C)c2o1", "note": "[Compound 3, 3-{4-[(2-Ethyl-5-fluoro-1-benzofuran-7-yl)methoxy]-2,3-dimethylphenyl}propanoic acid]", "values": [{"measurement": "Dose Responses C57 OGTT", "setting": "C57bl/6J Mice; 3 mg/kg", "value": "−15", "unit": "%"}, {"measurement": "Dose Responses C57 OGTT", "setting": "C57bl/6J Mice; 10 mg/kg", "value": "−24", "unit": "%"}, {"measurement": "Dose Responses C57 OGTT", "setting": "C57bl/6J Mice; 30 mg/kg", "value": "−35", "unit": "%"}, {"measurement": "C57 OGTT result", "setting": "C57bl/6J Mice; 30 mg/kg, glucose PO 3 g/kg", "value": "−35"}, {"measurement": "pEC50", "setting": "[1]", "value": 6.49}]}
{"compound": "CCc1cc2cc(Cl)cc(COc3ccc(CCC(=O)O)c(C)c3C)c2o1", "note": "[Compound 11, 3-{4-[(5-Chloro-2-ethyl-1-benzofuran-7-yl)methoxy]-2,3-dimethylphenyl}propanoic acid]", "values": [{"measurement": "Dose Responses C57 OGTT", "setting": "C57bl/6J Mice; 3 mg/kg", "value": "−30", "unit": "%"}, {"measurement": "Dose Responses C57 OGTT", "setting": "C57bl/6J Mice; 10 mg/kg", "value": "−38", "unit": "%"}, {"measurement": "Dose Responses C57 OGTT", "setting": "C57bl/6J Mice; 30 mg/kg", "value": "−43", "unit": "%"}, {"measurement": "pEC50", "setting": "[1]", "value": 6.55}]}
